The text below walks through data of patent US20030087881A1, “Irreversible inhibitors of tyrosine kinases” (priority 1997, published 2003).

As a reminder, the melting point is the temperature of the solid-liquid transition. As usually defined, the IC50 is the concentration at which inhibition is half-maximal.

The subject of data set [1] is A431 human epidermoid carcinoma cells. As to conditions: 2 μM compound for 1 or 2 hours, washed free, EGF stimulation. As for the experimental part: (§1) Extracts were made by lysing the monolayers in 0.2 mL of boiling Laemlli buffer (2% sodium dodecyl sulfate, 5% beta-mercaptoethanol, 10% glycerol and 50 mM tris[hydroxymethyl]aminomethane (Tris), pH 6.8), and the lysates were heated to 100° C. for 5 minutes. Proteins in the lysate were separated by polyacrylamide gel electrophoresis and electrophoretically transferred to nitrocellulose. The membrane was washed once in 10 mM Tris, pH 7.2, 150 mM NaCl, 0.01% Azide (TNA), and blocked overnight in TNA containing 5% bovine serum albumin and 1% ovalbumin. The membrane was blotted for 2 hours with antiphosphotyrosine antibody (UBI, 1 μg/mL in blocking buffer) and then washed twice in TNA, once in TNA containing 0.05% Tween-20 detergent and 0.05% nonidet P-40 detergent and twice in TNA. […] Band intensities were determined with a Molecular Dynamics laser densitometer.

Data set [2] has as its target Human EGF receptor tyrosine kinase (Homo sapiens, UniProt P00533). As to conditions: read-out: IC50 (nM) EGFr (isolated enzyme assay); isolated enzyme from A431 cells; 10 μM ATP.
Method: Human EGF receptor tyrosine kinase was isolated from A431 human epidermoid carcinoma cells by the following method. Cells were grown in roller bottles in dMEM/F12 media (Gibco/BRL) containing 10% fetal calf serum. Approximately 10^9 cells were lysed in 2 volumes of buffer containing 20mM N-[2-hydroxyethyl]piperazine-N′-[2-ethane sulfonic acid](Hepes), pH 7.4, 5 mM ethylene glycol-bis(β-aminoethyl ether) N,N,N′,N′-tetraacetic acid (EGTA), 1% Triton X-100, 10% glycerol, 0.1 mM sodium orthovanadate, 5 mM sodium fluoride, 4 mM pyrophosphate, 4 mM benzamide, 1 mM dithiothreitol (DTT), 80 μg/mL aprotinin, 40 μg/mL leupeptin, and 1 mM phenylmethyl sulfonyl fluoride (PMSF). After centrifugation at 25,000×g for 10 minutes, the supernatant was applied to a fast Q sepharose column (Pharmacia Biotech., Inc., Piscataway, N.J.) and eluted with a linear gradient from 0.1 M NaCl to 0.4 M NaCl in 50 mM Hepes, 10% glycerol, pH 7.4. Enzyme active fractions were pooled, divided into aliquots, and stored at −100° C.
Enzyme assays for IC50determinations were performed in 96-well filter plates (Millipore MADVN6550, Millipore, Bedford, Mass.). […] The wells are then washed 5 times with 0.2 mL of 10% TCA and ^32P incorporation determined with a Wallac beta plate counter (Wallac, Inc., Gaithersburg, Pa.).
Data set [3] relates to A431 human epidermoid carcinoma cells. The data set is described as follows: cells. The note with it: A-431, read-out: IC50 (nM) A431 Cell Autophosphorylation Assay. As for the experimental part: as §1
Duplicate sets of cells were treated with a range of concentrations of the designated compound to be tested as an inhibitor for 15 minutes. The cells were then stimulated with 100 ng/mL of EGF for 5 minutes and extracts made as described under the Western Blotting Procedure.

Sequence of Human EGF receptor tyrosine kinase (P00533 25-1210): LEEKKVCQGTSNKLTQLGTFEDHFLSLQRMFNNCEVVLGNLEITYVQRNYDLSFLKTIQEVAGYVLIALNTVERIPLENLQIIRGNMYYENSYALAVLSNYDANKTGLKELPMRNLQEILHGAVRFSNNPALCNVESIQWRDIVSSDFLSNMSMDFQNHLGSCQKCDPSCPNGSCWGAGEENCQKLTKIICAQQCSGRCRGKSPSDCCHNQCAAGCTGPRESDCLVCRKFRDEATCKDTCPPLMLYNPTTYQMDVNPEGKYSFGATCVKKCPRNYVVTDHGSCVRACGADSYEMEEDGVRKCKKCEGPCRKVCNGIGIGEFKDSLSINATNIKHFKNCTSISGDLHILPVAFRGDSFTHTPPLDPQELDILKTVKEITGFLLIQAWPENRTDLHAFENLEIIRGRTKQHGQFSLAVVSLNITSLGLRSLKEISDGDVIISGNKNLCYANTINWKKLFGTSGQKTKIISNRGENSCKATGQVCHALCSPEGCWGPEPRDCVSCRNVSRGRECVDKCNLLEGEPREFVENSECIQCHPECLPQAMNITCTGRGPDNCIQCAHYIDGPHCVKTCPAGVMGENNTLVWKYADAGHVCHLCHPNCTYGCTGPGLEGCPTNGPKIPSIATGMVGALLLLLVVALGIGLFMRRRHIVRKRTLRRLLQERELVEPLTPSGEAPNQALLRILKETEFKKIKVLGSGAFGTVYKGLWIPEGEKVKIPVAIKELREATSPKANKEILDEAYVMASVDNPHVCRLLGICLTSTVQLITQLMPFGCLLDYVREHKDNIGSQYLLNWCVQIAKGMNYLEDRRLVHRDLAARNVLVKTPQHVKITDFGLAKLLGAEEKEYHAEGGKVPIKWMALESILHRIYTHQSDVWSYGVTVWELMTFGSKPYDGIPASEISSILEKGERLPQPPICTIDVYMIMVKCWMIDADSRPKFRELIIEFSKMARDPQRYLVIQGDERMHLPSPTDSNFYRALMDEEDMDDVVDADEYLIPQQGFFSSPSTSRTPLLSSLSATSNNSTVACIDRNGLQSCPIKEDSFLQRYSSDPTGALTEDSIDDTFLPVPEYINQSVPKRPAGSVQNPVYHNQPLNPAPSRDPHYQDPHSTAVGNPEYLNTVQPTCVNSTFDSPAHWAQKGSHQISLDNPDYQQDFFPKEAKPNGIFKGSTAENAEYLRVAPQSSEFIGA

Compound `C=CC(=O)Nc1ccc2ncnc(N3CCc4ccc(Br)cc43)c2c1` [Example 1, N-[4-(6-Bromo-2,3-dihydroindol-1-yl)quinazolin-6-yl]acrylamide] registered a melting point of 214 to 216 °C. The “Irreversibility Test” value in data set [1] is listed as “yes, irreversible”. Also, the IC50 in data set [2] worked out at 0.4 nM. The IC50 in data set [3] turned out to be 9.9 nM.
